Results as given in US20100015174A1, “METHOD TO CONTROL DENGUE VIRUSES IN HUMANS BY PICOLINIC ACID AND DERIVATIVES THEREOF” (priority 2008, published 2010).
In brackets after ≈: the same amount, converted by molar mass. Several values for one entry are separate records, joined by “and”; a condition that tells them apart may be missing. Identical values can stand only once. Like-named read-outs stand apart in the source and are kept apart here.

Columns and labels:
[1] = system: human hepatitis B virus (HBV); test: HBV DNA by real-time PCR after 9-day treatment of HepG2.2.15 cells; assay type: cell-based; details: 9 days; for EC50: 216 h, HepG2.2.15 cells, read-out: overall EC50 against HBV; for inhibition at 60 µg/mL / inhibition at 250 µg/mL: HepG2.2.15, 216 h; for inhibition at 60 µg/mL: 60 ug/mL; for inhibition at 250 µg/mL: 250 ug/mL
Protocol: (§1) Here we evaluate the antiviral efficacy of picolinic acid and fusaric acid against human hepatitis B virus (HBV). HepG2.2.15 cells, a cell line that was stably transfected with HBV genome was used to study the antiviral effects of PA and FA against HBV. HepG2.2.15 cells were cultured under standard conditions. HepG2.2.15 cells were seeded in a 96-well plate at 2×10^4 cells/well and grown for 24 hours. The medium was replaced with 100 uL of medium containing PA at increasing concentrations (0, 10, 100, 250, and 500 ug/mL). The concentrations of FU used were 0, 1, 10, 30, 60, and 100 ug/mL. The cells were incubated at 37° C. for 9 days. The control medium and the medium containing the antivirals were changed every 24 hours. At day 9, the culture medium containing the released HBV virions was collected, the cells washed with PBS, and lysed with lysis buffer. All samples were stored at −70° C. until analyzed.
HBV DNA from drug-treated […] cell culture medium and cell lysates was extracted using QIAamp DNA mini kit, according to manufacturer's specifications.
PCR reaction was performed in 20 uL, comprising the following compounds: dH2O; 25 mM MgCl2; 10 uM sense primer; 10 uM antisense primer; LightCycler Probe 1 (fluorescent-labeled, 5 uM); LightCycler Probe 2 (LC Red 640-labeled, 10 uM); LC FastStart DNA Master Hyb Probes; and Uracil DNA glycosylase (1 uL).
PCR mix was aliquoted and 5 uL DNA template was then added to the PCR mix. A range of HBV plasmid DNA (1×10^8, 1×10^7, 1×10^6, [ . . . ], 1×10^2, 25 copies) were used as standards for quantitative analysis.
To study the antiviral activities of PA and FA against HBV, HepG2.2.15 cells were incubated with increasing concentrations of test compounds for 9 days with medium change daily. At day 9, the medium containing secreted HBV virions was collected and used for extraction of extracellular virus DNA. The cells were lysed by 0.5% SDS and used for extraction of intracellular virus DNA. DNA was extracted using Qiagen column and then quantitatively detected by real-time PCR assay.

Ava.5 cell line = test: Cytotoxicity by OD in HCV replicon cells; assay type: cell-based
Protocol: (§2) Here we determine the effects of Picolinic acid and Fusaric Acid on HCV replicon cell lines. The HCV replicons (qRTCPCR/iCycler) were contained in the Ava.5 cell line tested. Normalization by OD and serial dilutions were done in the untreated cell line. The experimental design was as follows: cells were grown in 12 well cell culture plates; the compounds interaction was done for 24 hours; at extraction, cell confluence was 75%; and RNA was extracted using Qiagen Rneasy extraction kit.

Sindbis replicon = Sindbis replicon (qRTCPCR/iCycler) in Huh7B/Sindbis cells; assay type: cell-based, Sindbis virus; details: for inhibition of Sindbis replicon: at all concentrations tested
Protocol: as §2, with “Sindbis” for “HCV”, “in Huh7B/Sindbis cells.” for “cell lines.”, “replicons” for “replicons (qRTCPCR/iCycler)”, “studied by qRTCPCR/iCycler.” for “contained in the Ava.5 cell line tested.”

HEL cells = test: Toxicity to HEL cells
HepG2.2.15 cells = test: Toxicity to HepG2.2.15 cells (9-day treatment); assay type: cell-based
Protocol: as §1

BVDV Trangie strain = test: BVDV virus yield reduction in MDBK cells (immunoperoxidase staining); assay type: cell-based, Bovine Viral Diarrhea Virus; details: 3 days
Protocol: BVDV Trangie strain, a well characterized non-cytopathic Australian isolate, was used in this study. The virus was cultured in MDBK cells (ATCC), and titred by immunoperoxidase staining.
80% confluent MDBK cells were infected with BVDV at a moi of 0.01 at 37° C. for 1 h. After viral inoculums was removed, Infected cells were washed with PBS and then incubated with culture medium containing PA at concentrations of 0, 10, 100, 250, 500, and 1000 ug/mL or FA at concentrations of 0, 1, 10, 30, 60, and 100 ug/mL at 37° C. for 3 days. The culture medium was then collected and stored at −70° C. The cells were harvested by one frozen/thawed cycle and centrifugation to pellet debris. The supernatant was collected and stored at −70° C.
PA of FA-treated cultures were 10-fold serially diluted, 50 uL of each dilution was added to 80% confluent MDBK cells in a 96-well plate, and incubated at 37° C. for 1 h. The innoculum was removed by washing with PBS once. The Infected cells were covered with 200 uL of 0.5% methylcellulose in culture medium and incubated at 37° C. for 2 days. After washing with PBS, the cells were fixed with 200 uL of 5% formalin in PBS for 10 min at room temperature. Subsequently, they were washed with 0.05% Tween −20/dH2O three times. Then, the cells were incubated with 50 uL mixture of three monoclonal antibodies against BVDV NS3 for 80 min at 37° C. in a humidified box. The cells were then washed as above and incubated with 50 uL of rabbit anti-mouse IgG Peroxidase-conjugate (DAKO) diluted 1:200 in 1% gelatin/PBS for 90 min at 37° C. in a humidified box. After final washes as described above, 200 uL of 3-amino-9-ethyl-carbazole was added to each well and incubated at room temperature for 30 min until the cells were stained.
The BVDV closely resembles HCV persistent Infection. After Infection with BVDV cultured MBDK were treated with different concentrations of PA or FA for 3 days. The antiviral effect was determined by virus yield reduction assays (i.e. staining using monoclonal antibodies against NS3, or titration of intracellular and extracellular virus by immunoperoxidase staining.

Huh7B/Sindbis cells = test: Cytotoxicity by OD in Sindbis replicon cells; assay type: cell-based; details: concentrations tested
Protocol: as §2, with “Sindbis” for “HCV”, “in Huh7B/Sindbis cells.” for “cell lines.”, “replicons” for “replicons (qRTCPCR/iCycler)”, “studied by qRTCPCR/iCycler.” for “contained in the Ava.5 cell line tested.”

[2] = read-out: inhibition of intracellular HBV DNA
[3] = read-out: inhibition of released HBV DNA

In the case of `CCCCc1ccc(C(=O)O)nc1` [FA, fusaric acid], the EC50 [1] is reported as > 60 µg/mL, the inhibition at 60 µg/mL [1, 2] is reported as 28% and the inhibition at 60 µg/mL [1, 3] is reported as 76.5%. The “overt cytotoxicity by OD” value (Ava.5 cell line; 100 ug/mL) was “no overt cytotoxicity”, the “Sindbis replicon % CTRL” value (Sindbis replicon; FA 5, 24 hours) was 14.0 % CTRL and the “Sindbis replicon AVE” value (Sindbis replicon; FA 5, 24 hours) was 22.7. The “Sindbis replicon, single reading” value (Sindbis replicon; FA 5, 24 hours) was 22.7 and 23.3 and 23.1 and 21.7, the “Sindbis replicon % CTRL” value (Sindbis replicon; FA 25, 24 hours) was 11.6 % CTRL and the “Sindbis replicon AVE” value (Sindbis replicon; FA 25, 24 hours) was 22.9. For the same compound, the “Sindbis replicon, single reading” value (Sindbis replicon; FA 25, 24 hours) was 23.0 and 22.7 and 22.4 and 23.5, the “Sindbis replicon % CTRL” value (Sindbis replicon; FA 50, 24 hours) was 9.3 % CTRL and the “Sindbis replicon AVE” value (Sindbis replicon; FA 50, 24 hours) was 23.3. For the same compound, the “Sindbis replicon, single reading” value (Sindbis replicon; FA 50, 24 hours) was 22.8 and 23.4 and 22.7 and 24.2, the “Sindbis replicon % CTRL” value (Sindbis replicon; FA 100, 24 hours) was 8.8 % CTRL and the “Sindbis replicon AVE” value (Sindbis replicon; FA 100, 24 hours) was 23.5. For the same compound, the “Sindbis replicon, single reading” value (Sindbis replicon; FA 100, 24 hours) was 22.2 and 23.8 and 24.0 and 23.9, the “inhibition of Sindbis replicon” value (Sindbis replicon) was > 85% and the “toxicity to HEL cells” value (HEL cells; 60 ug/mL) was “no significant toxicity”. For the same compound, the “toxicity to HepG2.2.15 cells” value (HepG2.2.15 cells; 100 ug/ml) was 100 ug/ml was toxic to HepG2.2.15 cells, the BVDV virus yield (BVDV Trangie strain; FA 1 μg/ml) was 2.4 × 10^5 (pfu/ml) and the “BVDV virus yield, % of control” value (BVDV Trangie strain; FA 1 μg/ml) was 80.0 % of control. The BVDV virus yield (BVDV Trangie strain; FA 10 μg/ml) was 1.8 × 10^5 (pfu/ml), the “BVDV virus yield, % of control” value (BVDV Trangie strain; FA 10 μg/ml) was 60.0 % of control and the BVDV virus yield (BVDV Trangie strain; FA 30 μg/ml) was 2.5 × 10^5 (pfu/ml). The “BVDV virus yield, % of control” value (BVDV Trangie strain; FA 30 μg/ml) was 83.3 % of control, the BVDV virus yield (BVDV Trangie strain; FA 60 μg/ml) was 1.5 × 10^5 (pfu/ml) and the “BVDV virus yield, % of control” value (BVDV Trangie strain; FA 60 μg/ml) was 50.0 % of control. For the same compound, the “activity against BVDV” value (BVDV Trangie strain; MDBK cells) was “active” and the “overt cytotoxicity by OD” value (Huh7B/Sindbis cells) was “No overt cytotoxicity”.
`O=C(O)c1ccccn1` [PA, picolinic acid] was tested, and the EC50 [1] was ~139 µg/mL (≈ 1130 µM), the inhibition at 250 µg/mL [1, 2] was 79.4% and the inhibition at 250 µg/mL [1, 3] was 72.3%. The “overt cytotoxicity by OD” value (Ava.5 cell line; 250 ug/mL) was “no overt cytotoxicity”, the “Sindbis replicon % CTRL” value (Sindbis replicon; PA 100, 24 hours) was 6.5 % CTRL and the “Sindbis replicon AVE” value (Sindbis replicon; PA 100, 24 hours) was 23.7. For the same compound, the “Sindbis replicon, single reading” value (Sindbis replicon; PA 100, 24 hours) was 24.1 and 23.7 and 23.5 and 23.6, the “Sindbis replicon % CTRL” value (Sindbis replicon; PA 300, 24 hours) was 11.3 % CTRL and the “Sindbis replicon AVE” value (Sindbis replicon; PA 300, 24 hours) was 23.3. For the same compound, the “Sindbis replicon, single reading” value (Sindbis replicon; PA 300, 24 hours) was 24.3 and 23.7 and 21.6, the “Sindbis replicon % CTRL” value (Sindbis replicon; PA 400, 24 hours) was 6.7 % CTRL and the “Sindbis replicon AVE” value (Sindbis replicon; PA 400, 24 hours) was 23.7. For the same compound, the “Sindbis replicon, single reading” value (Sindbis replicon; PA 400, 24 hours) was 24.0 and 23.5 and 23.2 and 24.3, the “inhibition of Sindbis replicon” value (Sindbis replicon) was “greater than 90%” and the “Sindbis replicon % CTRL” value (Sindbis replicon; column PA 200, 24 hours) was 6.5 % CTRL. For the same compound, the “Sindbis replicon AVE” value (Sindbis replicon; column PA 200, 24 hours) was 23.8, the “Sindbis replicon, single reading” value (Sindbis replicon; column PA 200, 24 hours) was 24.1 and 22.9 and 24.2 and the “toxicity to HEL cells” value (HEL cells; 500 ug/mL) was “no significant toxicity”. The “toxicity to HepG2.2.15 cells” value (HepG2.2.15 cells; 500 ug/ml) was 500 ug/ml was slightly toxic to HepG2.2.15 cells, the “reduction of BVDV virus yield” value (BVDV Trangie strain; 250 ug/mL) was 76% and the EC50 (BVDV Trangie strain; Bovine viral diarrhea virus isolates and strains, 72 h, MDBK cells, read-out: EC50 against BVDV) was 60 µg/mL (≈ 487 µM). For the same compound, the “activity against BVDV” value (BVDV Trangie strain; MDBK cells) was “active”, the BVDV virus yield (BVDV Trangie strain; PA 10 μg/ml) was 3.2 × 10^5 (pfu/ml) and the “BVDV virus yield, % of control” value (BVDV Trangie strain; PA 10 μg/ml) was 78.0 % of control. The BVDV virus yield (BVDV Trangie strain; PA 100 μg/ml) was 2.5 × 10^5 (pfu/ml), the “BVDV virus yield, % of control” value (BVDV Trangie strain; PA 100 μg/ml) was 61.0 % of control and the BVDV virus yield (BVDV Trangie strain; PA 250 μg/ml) was 1.0 × 10^5 (pfu/ml). For the same compound, the “BVDV virus yield, % of control” value (BVDV Trangie strain; PA 250 μg/ml) was 24.4 % of control, the BVDV virus yield (BVDV Trangie strain; PA 500 μg/ml) was 0.35 × 10^5 (pfu/ml) and the “BVDV virus yield, % of control” value (BVDV Trangie strain; PA 500 μg/ml) was 8.5 % of control. For the same compound, the “overt cytotoxicity by OD” value (Huh7B/Sindbis cells) was “no overt cytotoxicity”.
